Measurements as given in paper PMC8370666 (Journal of the Iranian Chemical Society, 2021).

Assays:
Assay in all cases: biochemical
[1] = biological target: human RNA N7-MTase (hRNMT) (Homo sapiens, UniProt O43148); format: biochemical; conditions: for inhibition at 50 µM: read-out: % of inhibition at 50 μM, hRNMT
[2] = biological target: SARS-CoV nsp14 (Severe acute respiratory syndrome coronavirus, UniProt P0C6X7); conditions: for IC50: SARS-Cov nap14 IC50; for inhibition at 50 µM: read-out: % of inhibition at 50 μM, SARs-Cov nsp 14
[3] = biological target: vaccinia virus capping enzyme (D1-D12) (Vaccinia virus, UniProt P04298); conditions: read-out: % of inhibition at 50 μM, Vaccinia virus D1-D12

Chain of human RNA N7-MTase (hRNMT) (O43148 whole entry): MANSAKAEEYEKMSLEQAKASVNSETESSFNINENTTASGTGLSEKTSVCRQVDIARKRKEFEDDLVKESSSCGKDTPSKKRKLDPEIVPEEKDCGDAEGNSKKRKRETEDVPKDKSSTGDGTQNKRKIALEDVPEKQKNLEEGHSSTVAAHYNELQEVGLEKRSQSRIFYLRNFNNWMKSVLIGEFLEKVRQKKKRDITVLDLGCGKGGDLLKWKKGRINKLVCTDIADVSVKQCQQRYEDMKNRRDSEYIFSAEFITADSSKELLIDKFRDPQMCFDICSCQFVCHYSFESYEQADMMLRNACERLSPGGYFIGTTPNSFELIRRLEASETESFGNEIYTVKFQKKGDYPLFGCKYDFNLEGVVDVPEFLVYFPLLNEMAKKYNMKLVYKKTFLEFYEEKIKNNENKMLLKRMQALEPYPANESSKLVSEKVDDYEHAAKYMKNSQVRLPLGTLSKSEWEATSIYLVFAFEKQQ

SMILES | % of inhibition at 50 μM, hRNMT [1] | IC50 [1] [µM] | inhibition at 50 µM [1] [%] | IC50 [2] [µM] | inhibition at 50 µM [2] [%] | inhibition at 50 µM [3] [%]
N#CC1=C(N)OC2=C(CC(=O)CC2)C1c1ccccc1 (stereo not shown) [Compound 4a, 2-Amino-6-oxo-4-phenyl-5,6,7,8-tetrahydro-4H-chromene-3-carbonitrile] | high inhibitions | < 0.05 | 92.3 ± 5.41 | 0.63 ± 0.32 | 93.4 ± 3.68 | 89.3 ± 7.89
N#CC1=C(N)OC2=C(CC(=O)CC2)C1c1ccccc1Cl (stereo not shown) [Compound 4b, 2-Amino-4-(2-chlorophenyl)-6-oxo-5,6,7,8-tetrahydro-4H-chromene-3-carbonitrile] | high inhibitions | 0.41 ± 0.26 | 94.6 ± 7.68 | 0.62 ± 0.32 | 87.5 ± 8.21 | 98.3 ± 5.42
COc1ccc(C2C(C#N)=C(N)OC3=C2CC(=O)CC3)cc1 (stereo not shown) [Compound 4c, 2-Amino-4-(4-methoxyphenyl)-6-oxo-5,6,7,8-tetrahydro-4H-chromene-3-carbonitrile] | – | 32.6 ± 1.7 | 51.7 ± 4.62 | 16.4 ± 2.7 | 34.6 ± 4.62 | 49.4 ± 6.92
N#CC1=C(N)OC2=C(c3sc(N)c(C#N)c3CC2)C1c1ccccc1 (stereo not shown) [Compound 6a, 2,7-Diamino-9-phenyl-5,9-dihydro-4H-thieno[2,3-f]chromene-3,8-dicarbonitrile] | high inhibitions | 36.5 ± 6.27 | 80.3 ± 3.74 | 26.4 ± 3.57 | 68.2 ± 4.53 | 79.3 ± 5.37
COc1ccc(C2C(C#N)=C(N)OC3=C2c2sc(N)c(C#N)c2CC3)cc1 (stereo not shown) [Compound 6c, 2,7-Diamino-9-(4-methoxyphenyl)-5,9-dihydro-4H-thieno[2,3-f]chromene-3,8-dicarbonitrile] | high inhibitions | < 0.05 | 92.2 ± 5.22 | 0.45 ± 0.19 | 88.2 ± 4.26 | 92.2 ± 5.22
CCOC(=O)c1c(N)sc2c1CCC1=C2C(c2ccccc2)C(C#N)=C(N)O1 (stereo not shown) [Compound 6d, Ethyl 2,7-diamino-8-cyano-9-phenyl-5,9-dihydro-4H-thieno[2,3-f]chromene-3-carboxylate] | – | 10.5 ± 2.69 | 40.3 ± 6.27 | 26.7 ± 5.73 | 42.6 ± 4.65 | 36.3 ± 5.22
CCOC(=O)c1c(N)sc2c1CCC1=C2C(c2ccccc2Cl)C(C#N)=C(N)O1 (stereo not shown) [Compound 6e, Ethyl 2,7-diamino-9-(2-chlorophenyl)-8-cyano-5,9-dihydro-4H-thieno[2,3-f]chromene-3-carboxylate] | high inhibitions | 0.29 ± 0.08 | 80.2 ± 6.28 | 0.39 ± 0.25 | 89.2 ± 8.27 | 92.5 ± 6.9
CCOC(=O)c1c(N)sc2c1CCC1=C2C(c2ccc(OC)cc2)C(C#N)=C(N)O1 (stereo not shown) [Compound 6f, Ethyl 2,7-diamino-8-cyano-9-(4-methoxyphenyl)-5,9-dihydro-4H-thieno[2,3-f]chromene-3-carboxylate] | – | 1.26 ± 0.58 | 62.5 ± 5.84 | 36.4 ± 4.51 | 58.3 ± 3.65 | 44.8 ± 5.08
N#CC1=C(N)OC2=C(C=C(c3c(N)n[nH]c3N)CC2)C1c1ccccc1Cl (stereo not shown) [Compound 9a, 2-Amino-4-(2-chlorophenyl)-6-(3,5-diamino-1H-pyrazol-4-yl)-7,8-dihydro-4H-chromene-3-carbonitrile] | high inhibitions | < 0.05 | 93.6 ± 3.71 | 0.42 ± 0.19 | 96.3 ± 2.4 | 95.5 ± 3.23
N#CC1=C(N)OC2=C(C=C(c3c(N)nn(-c4ccccc4)c3N)CC2)C1c1ccccc1Cl (stereo not shown) [Compound 9b, 2-Amino-4-(2-chlorophenyl)-6-(3,5-diamino-1-phenyl-1H-pyrazol-4-yl)-7,8-dihydro-4H-chromene-3-carbonitrile] | high inhibitions | 1.91 ± 1.32 | 90.3 ± 5.2 | 0.36 ± 0.2 | 93.3 ± 4.17 | 96.1 ± 2.48
CC1=CSC(=C2C(=O)CCC3=C2C(c2ccccc2Cl)C(C#N)=C(N)O3)N1c1ccccc1 (stereo not shown) [Compound 15, 2-Amino-4-(2-chlorophenyl)-5-(4-methyl-3-phenylthiazol-2(3H)-ylidene)-6-oxo-5,6,7,8-tetrahydro-4H-chromene-3-carbonitrile] | high inhibitions | 4.91 ± 2.34 | 87.3 ± 6.42 | 22.6 ± 3.58 | 89.2 ± 5.83 | 90.4 ± 5.68
CCOC(=O)CSC(Nc1ccccc1)=C1C(=O)CCC2=C1C(c1ccccc1Cl)C(C#N)=C(N)O2 (stereo not shown) [Compound 16, Ethyl 2-(((2-amino-4-(2-chlorophenyl)-3-cyano-6-oxo-7,8-dihydro-4H-chromen-5(6H)-ylidene)(phenylamino)methyl)thio)acetate] | high inhibitions | 1.29 ± 0.98 | 90.3 ± 4.66 | 0.53 ± 0.18 | 89.2 ± 6.58 | 84.3 ± 6.29
O=C1CCc2c(sc(=S)n2-c2ccccc2)C1 [Compound 18, 3-Phenyl-2-thioxo-2,3,4,5-tetrahydrobenzo[d]thiazol-6(7H)-one] | – | 26.5 ± 6.28 | 65.5 ± 4.8 | 53.3 ± 5.62 | 56.4 ± 5.73 | 63.7 ± 7.08
CCOC1C(C#N)=C(N)OC2=C1c1sc(=S)n(-c3ccccc3)c1CC2 (stereo not shown) [Compound 20a, 7-Amino-9-ethoxy-3-phenyl-2-thioxo-3,4,5,9-tetrahydro-2H-chromeno[6,5-d]thiazole-8-carbonitrile] | – | 58.3 ± 4.95 | 70.4 ± 5.9 | 42.4 ± 5.63 | 49.2 ± 6.73 | 53.5 ± 8.25
CCOC1C(C#N)=C(O)OC2=C1c1sc(=S)n(-c3ccccc3)c1CC2 (stereo not shown) [Compound 20b, 9-Ethoxy-7-hydroxy-3-phenyl-2-thioxo-3,4,5,9-tetrahydro–2H-chromeno[6,5-d]thiazole-8-carbonitrile] | – | 18.8 ± 5.36 | 39.5 ± 6.83 | 32.6 ± 3.8 | 36.1 ± 6.83 | 41.4 ± 4.93
N#Cc1c(N)sc2c1CCc1c-2sc(=S)n1-c1ccccc1 [Compound 21a, 7-Amino-3-phenyl-2-thioxo-2,3,4,5-tetrahydrothieno[2',3':3,4]benzo[1,2-d]thiazole-6-carbonitrile] | – | 56.3 ± 4.62 | 60.3 ± 5.37 | 18.5 ± 2.68 | 49.2 ± 6.73 | 57.8 ± 5.82
CCOC(=O)c1c(N)sc2c1CCc1c-2sc(=S)n1-c1ccccc1 [Compound 21b, Ethyl 7-amino-3-phenyl-2-thioxo-2,3,4,5-tetrahydrothieno[2',3':3,4]benzo[1,2-d]thiazole-6-carboxylate] | high inhibitions | 0.94 ± 0.36 | 88.2 ± 5.38 | 1.08 ± 0.58 | 87.2 ± 5.36 | 90.4 ± 6.53
N#CC1=C(N)OC2=C(c3sc(=S)n(-c4ccccc4)c3CC2)C1c1ccccc1 (stereo not shown) [Compound 23a, 7-Amino-3,9-diphenyl-2-thioxo-3,4,5,9-tetrahydro-2H-chromeno[6,5-d]thiazole-8-carbonitrile] | – | 24.7 ± 5.47 | 42.7 ± 5.88 | 32.4 ± 4.58 | 56.6 ± 6.72 | 45.8 ± 6.38
N#CC1=C(N)OC2=C(c3sc(=S)n(-c4ccccc4)c3CC2)C1c1ccc(Cl)cc1 (stereo not shown) [Compound 23b, 7-Amino-9-(4-chlorophenyl)-3-phenyl-2-thioxo-3,4,5,9-tetrahydro-2H-chromeno[6,5-d]thiazole-8-carbonitrile] | high inhibitions | < 0.05 | 96.4 ± 7.24 | 0.35 ± 0.15 | 94.5 ± 6.83 | 96.3 ± 8.92
CCOC(=O)C1=C(N)OC2=C(c3sc(=S)n(-c4ccccc4)c3CC2)C1c1ccccc1 (stereo not shown) [Compound 23c, Ethyl 7-amino-3,9-diphenyl-2-thioxo-3,4,5,9-tetrahydro-2H-chromeno[6,5-d]thiazole-8-carboxylate] | – | 70.3 ± 3.8 | 59.3 ± 4.68 | 28.4 ± 3.26 | 64.3 ± 5.53 | 70.4 ± 5.63
CCOC(=O)C1=C(N)OC2=C(c3sc(=S)n(-c4ccccc4)c3CC2)C1c1ccc(Cl)cc1 (stereo not shown) [Compound 23d, Ethyl 7-amino-9-(4-chlorophenyl)-3-phenyl-2-thioxo-3,4,5,9-tetrahydro-2H-chromeno[6,5-d]thiazole-8-carboxylate] | – | < 0.05 | 68.6 ± 6.42 | 0.49 ± 0.13 | 57.7 ± 4.26 | 72.3 ± 5.58
Nc1ncnc2c1ncn2[C@@H]1O[C@H](C[C@@H](N)CC[C@H](N)C(=O)O)[C@@H](O)[C@H]1O [Sinefungin, reference compound] | – | < 0.05 | – | – | 98.36 ± 0.23 | –
